In the supplement of paper PMC11208160:

Assay: recombinant UMI read abundance after kanamycin selection (control-corrected) (log10(CPM+1)); higher = more efficient recombination; extreme values may be limits of the assay; sequences stand for … in AGTGCAGAGAAAATCGGCCAGTTTTCTCTGCCTGCAGTCCGCATGCCGTGGGACCCCTTGGGTTCTAACCTGTTGCCTAGATTTATGCAGCGGACTGCCTTTCTCCCAAAGTGATAAACCGG…AGGTTGGTTTCACT; site = the 11-nt donor
Procedure, shortened: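 In Escherichia coli, a pool of donor and donor-binding-loop pairs, each with a 12-nt UMI, was tested for the IS621 bridge recombinase. Plating was on IPTG (0.07 mM) plus kanamycin, or without selection, in two replicates. Recombinant UMIs were amplified by PCR across the donor–target junction and sequenced, and counts were reported as log10(CPM+1) after averaging and control-derived scaling.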
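Also: IS621 bridge recombinase in Escherichia coli cells against a fixed T5 target plasmid.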

First: GTGCATACATGGACCGGTTTTCCCGGTAATCCGTATTTGGT (site GTGCATACTAC)
Second: GTGCATACATGGACCGGTTTTCCCGGTAATCCGTATTTGGT (site GTGCATCCTAC)
The “recombinant UMI read abundance (log10)” value of the first is higher: 1.51 for the first, 0.00833 for the second.

Going from “GTGCATACATGGACCGGTTTTCCCGGTAATCCGTATTTGGT (site GTGCATGCTAC)” to “GTGCATACATGGACCGGTTTTCCCGGTAATCCGTATTTGGT (site GTGCATTCTAC)”, the “recombinant UMI read abundance (log10)” value falls from 0.555 to 0.00888.

“GTGCATGCATGGACCGGTTTTCCCGGTAATCCGTATTTGCT (site GTGCATGCTAA)” and “GTGCATGCATGGACCGGTTTTCCCGGTAATCCGTATTTGCT (site GTGCATGCTAC)” are within 0.2 log units of each other in “recombinant UMI read abundance (log10)” value: 0.00274 for the first, 0 for the second.

Going from “GTGCATGCATGGACCGGTTTTCCCGGTAATCCGTATTTGCT (site GTGCATGCTAG)” to “GTGCATGCATGGACCGGTTTTCCCGGTAATCCGTATTTGCT (site GTGCATGCTAT)”, the “recombinant UMI read abundance (log10)” value falls from 2.86 to 0.999.

Compared with “GTGCCGACATGGACCGGTTTTCCCGGTAATCCGTATTTGAC (site GTGCCGACTGT)”, “GTGCGTGCATGGACCGGTTTTCCCGGTAATCCGTATTTGGT (site GTGCATGCTAC)” is lower in “recombinant UMI read abundance (log10)” value: 2.4 for the first, 0.26 for the second.

First: GTGCGTGCATGGACCGGTTTTCCCGGTAATCCGTATTTGGT (site GTGCCTGCTAC)
Second: GTGCGTGCATGGACCGGTTTTCCCGGTAATCCGTATTTGGT (site GTGCGTGCTAC)
The “recombinant UMI read abundance (log10)” value of the first is lower: 0.00736 for the first, 0.346 for the second.

Compared with “GTGCGTGCATGGACCGGTTTTCCCGGTAATCCGTATTTGGT (site GTGCTTGCTAC)”, “GTGCTCCCATGGACCGGTTTTCCCGGTAATCCGTATTTGAC (site GTGCTCCCTGT)” is higher in “recombinant UMI read abundance (log10)” value: 0.00274 for the first, 1.9 for the second.

“GTGGACGCATGGACCGGTTTTCCCGGTAATCCGTATTTGAG (site GTGGACGCTCT)” and “GTGGACGCATGGACCGGTTTTCCCGGTAATCCGTATTTGTG (site GTGGAAGCTCA)” are within 0.2 log units of each other in “recombinant UMI read abundance (log10)” value: 1.56 for the first, 1.41 for the second.

Compared with “GTGGACGCATGGACCGGTTTTCCCGGTAATCCGTATTTGTG (site GTGGACGCTCA)”, “GTGGACGCATGGACCGGTTTTCCCGGTAATCCGTATTTGTG (site GTGGAGGCTCA)” is lower in “recombinant UMI read abundance (log10)” value: 1.56 for the first, 0.0785 for the second.

Compared with “GTGGACGCATGGACCGGTTTTCCCGGTAATCCGTATTTGTG (site GTGGATGCTCA)”, “GTGGAGACATGGACCGGTTTTCCCGGTAATCCGTATTTGTG (site GTGGAGACTCA)” is higher in “recombinant UMI read abundance (log10)” value: 0.653 for the first, 1.59 for the second.

First: GTGGAGACATGGACCGGTTTTCCCGGTAATCCGTATTTGTG (site GTGGAGCCTCA)
Second: GTGGAGACATGGACCGGTTTTCCCGGTAATCCGTATTTGTG (site GTGGAGGCTCA)
The “recombinant UMI read abundance (log10)” value of the first is lower: 0.0116 for the first, 1.4 for the second.

Compared with “GTGGAGACATGGACCGGTTTTCCCGGTAATCCGTATTTGTG (site GTGGAGTCTCA)”, “GTGGAGCCATGGACCGGTTTTCCCGGTAATCCGTATTTGTG (site GTGGAGACTCA)” is lower in “recombinant UMI read abundance (log10)” value: 1.99 for the first, 0.00935 for the second.

Going from “GTGGAGCCATGGACCGGTTTTCCCGGTAATCCGTATTTGTG (site GTGGAGCCTCA)” to “GTGGAGCCATGGACCGGTTTTCCCGGTAATCCGTATTTGTG (site GTGGAGGCTCA)”, the “recombinant UMI read abundance (log10)” value falls from 0.484 to 0.00706.

First: GTGGAGCCATGGACCGGTTTTCCCGGTAATCCGTATTTGTG (site GTGGAGTCTCA)
Second: GTGGAGGCATGGACCGGTTTTCCCGGTAATCCGTATTTGAG (site GTGGAGGCTCA)
The “recombinant UMI read abundance (log10)” value of the first is higher: 1.74 for the first, 0.00393 for the second.

Going from “GTGGAGGCATGGACCGGTTTTCCCGGTAATCCGTATTTGAG (site GTGGAGGCTCC)” to “GTGGAGGCATGGACCGGTTTTCCCGGTAATCCGTATTTGAG (site GTGGAGGCTCG)”, the “recombinant UMI read abundance (log10)” value rises from 0.297 to 0.681.

First: GTGGAGGCATGGACCGGTTTTCCCGGTAATCCGTATTTGAG (site GTGGAGGCTCT)
Second: GTGGAGGCATGGACCGGTTTTCCCGGTAATCCGTATTTGGG (site GTGGAGGCTCA)
The “recombinant UMI read abundance (log10)” value of the first is higher: 1.57 for the first, 0.238 for the second.

Going from “GTGGAGGCATGGACCGGTTTTCCCGGTAATCCGTATTTGGG (site GTGGAGGCTCC)” to “GTGGAGGCATGGACCGGTTTTCCCGGTAATCCGTATTTGGG (site GTGGAGGCTCG)”, the “recombinant UMI read abundance (log10)” value falls from 0.954 to 0.597.

“GTGGAGGCATGGACCGGTTTTCCCGGTAATCCGTATTTGGG (site GTGGAGGCTCT)” and “GTGGAGGCATGGACCGGTTTTCCCGGTAATCCGTATTTGTA (site GTGGAGGCTAA)” are within 0.2 log units of each other in “recombinant UMI read abundance (log10)” value: 0.567 for the first, 0.557 for the second.

First: GTGGAGGCATGGACCGGTTTTCCCGGTAATCCGTATTTGTA (site GTGGAGGCTCA)
Second: GTGGAGGCATGGACCGGTTTTCCCGGTAATCCGTATTTGTA (site GTGGAGGCTGA)
The “recombinant UMI read abundance (log10)” value of the first is lower: 0.682 for the first, 0.943 for the second.

First: GTGGAGGCATGGACCGGTTTTCCCGGTAATCCGTATTTGTA (site GTGGAGGCTTA)
Second: GTGGATACATGGACCGGTTTTCCCGGTAATCCGTATTTGCA (site GTGGATACTTG)
The “recombinant UMI read abundance (log10)” value of the first is higher: 2.86 for the first, 1.84 for the second.

First: GTGGCCTCATGGACCGGTTTTCCCGGTAATCCGTATTTGGA (site GTGGCCTCTTC)
Second: GTGGCTGCATGGACCGGTTTTCCCGGTAATCCGTATTTGCC (site GTGGCTGCTGG)
The “recombinant UMI read abundance (log10)” value of the first is lower: 1.43 for the first, 2.44 for the second.

Compared with “GTGGGCGCATGGACCGGTTTTCCCGGTAATCCGTATTTGAC (site GTGGGCGCTGT)”, “GTGGGTACATGGACCGGTTTTCCCGGTAATCCGTATTTGTG (site GTGGGTACTCA)” is lower in “recombinant UMI read abundance (log10)” value: 2.43 for the first, 1.46 for the second.

Going from “GTGGGTTCATGGACCGGTTTTCCCGGTAATCCGTATTTGGC (site GTGGGTTCTGC)” to “GTGGTCGCATGGACCGGTTTTCCCGGTAATCCGTATTTGCG (site GTAGTCGCTCG)”, the “recombinant UMI read abundance (log10)” value falls from 2.19 to 0.519.

Compared with “GTGGTCGCATGGACCGGTTTTCCCGGTAATCCGTATTTGCG (site GTCGTCGCTCG)”, “GTGGTCGCATGGACCGGTTTTCCCGGTAATCCGTATTTGCG (site GTGGTCGCTCG)” is higher in “recombinant UMI read abundance (log10)” value: 0.0116 for the first, 1.15 for the second.

First: GTGGTCGCATGGACCGGTTTTCCCGGTAATCCGTATTTGCG (site GTTGTCGCTCG)
Second: GTGTAAACATGGACCGGTTTTCCCGGTAATCCGTATTTGCT (site GTGTAAACTAG)
The “recombinant UMI read abundance (log10)” value of the first is lower: 0.00973 for the first, 2.89 for the second.

First: GTGTATACATGGACCGGTTTTCCCGGTAATCCGTATTTGCT (site GTGTATACTAG)
Second: GTGTCCCCATGGACCGGTTTTCCCGGTAATCCGTATTTGGA (site GTGTCCCCTTC)
The “recombinant UMI read abundance (log10)” value of the first is higher: 2.44 for the first, 0.0113 for the second.

Compared with “GTGTGCACATGGACCGGTTTTCCCGGTAATCCGTATTTGTA (site GTATGCACTTA)”, “GTGTGCACATGGACCGGTTTTCCCGGTAATCCGTATTTGTA (site GTCTGCACTTA)” is lower in “recombinant UMI read abundance (log10)” value: 1.48 for the first, 0.0255 for the second.

Going from “GTGTGCACATGGACCGGTTTTCCCGGTAATCCGTATTTGTA (site GTGTGCACTTA)” to “GTGTGCACATGGACCGGTTTTCCCGGTAATCCGTATTTGTA (site GTTTGCACTTA)”, the “recombinant UMI read abundance (log10)” value falls from 2.15 to 0.00854.

In the case of “GTGTTCTCATGGACCGGTTTTCCCGGTAATCCGTATTTGAA (site GTGTTCTCTTT)”, the “recombinant UMI read abundance (log10)” value is reported as 2.52.
